Reference: patent US20240124564A1, “ANTI-CLEAVED HISTONE H3 MONOCLONAL ANTIBODY THAT SPECIFICALLY RECOGNIZES NEUTROPHIL EXTRACELLULAR TRAPS” (Max-Planck-Gesellschaft zur Förderung der Wissenschaften …, priority 2021, published 2024)
No end group written: not given here.

What was measured:
3D9 binding to NETs = experiment: Peptide competition assay; set-up: species or system human; conditions: 3D9 preincubated overnight with peptide; PMA 3 h neutrophils
Description: NS: non-stimulated. Images were taken on an upright fluorescent microscope at 20×. Scale bars-50 μm (full field) and 10 μm (inset). • (B) Immunoblots of lysates prepared from neutrophils stimulated with PMA (50 nM) for the times indicated in the figure. […] Samples were serially diluted and immobilized on a high affinity ELISA plate according to DNA content (for NETs, chromatin and DNA) or protein content (for recombinant histone H3) as determined by PicoGreen and bicinchoninic acid assays respectively. Starting concentration was 1 μg/ml DNA or protein. […] Data is presented for dilution 200 ng/ml. REIRR indicates unconjugated branched immunising peptide control formed by SEQ ID NO 11 and SEQ ID NO 26. This peptide was coated at 20 ng/ml. […] (F, G) Neutrophils were seeded in 10 ml petri dishes and stimulated for 3 h with PMA. Before total cell lysis and immunoprecipitation, NETs were digested with benzonase to liberate histones and octamers for antibody binding. […] (F) Coomassie stained gel of proteins immunoprecipitated by 3D9 or isotype control and the corresponding silver stained gel. The predicted cleaved H3 and intact H3 bands are indicated. […]
Neutrophils were seeded on coverslips in a 24 well dish (1×10^5 cells/well) and stimulated with PMA for 3 h and fixed with 2% PFA. […] Peptide competition was assessed visually by fluorescent microscopy.

NET formation = NET formation by immunofluorescent confocal microscopy with serine protease inhibition; type: cell-based, human; conditions: preincubation, PMA 50 nM, 150 min
Description: (§1) Lysates were resolved by SDS-PAGE and immunoblotted with N- and C-terminal antibodies to H3. GAPDH was used as a loading control. […] At 150 min the cells were fixed and stained for neutrophil elastase (NE), chromatin (using a H2A-H2B-DNA antibody PL2.3) and DNA using DAPI (4′,6-diamidino-2-phenylindole). NS: non-stimulated. Images were taken at 63× and the scale bar is 20 μm.
For immunofluorescent imaging of purified cells, neutrophils/PBMCs were seeded in 24 well dishes containing glass coverslips, with 1×10^5 cells per well and incubated at 37° C. for 1 h allowing to adhere to the coverslip. At this stage, inhibitors and priming factors were included as indicated. Reactions were stopped by the addition of paraformaldehyde (2% [w/v]) for 20 min at RT or 4° C. overnight. After fixation, cells were washed and stained as previously described (Brinkmann et al 2012). Briefly, all steps were performed by floating inverted coverslips on drops of buffer on laboratory parafilm. Cells were permeabilised with PBS, pH 7.5, 0.5% (v/v) Triton X-100 for 3 min. For screening and quantification experiments, this permeabilization step was extended to 10 min. […]

[1] = test system: Histone H3 cleavage by serine proteases; experiment: PMA induced histone H3 cleavage in neutrophils (immunoblot) with serine protease inhibition; type: cell-based, human; conditions: preincubation 30 min
Description: as §1
For all experiments, unless indicated, neutrophils were cultured RPMI (GIBCO 32404014) supplemented with 10 mM HEPES and 0.1% (w/v) HSA, which had been preequilibrated in CO2 conditions for 1 h. Cells were routinely cultured at 37° C., 5% CO2 unless indicated. For all experiments, stimuli were added to cell reactions as 10× working stock solutions freshly diluted in RPMI. For inhibition experiments, a 10× inhibitor stock and appropriate vehicle controls, were added to the cells and preincubated for the times stated in the figure legends.
To analyse proteins, lysates were prepared from stimulated or resting neutrophils. Cells were seeded in culture medium in 1.5 ml microcentrifuge tubes at 1×10^7 cells/ml with 5×10^6 cells per time point. After addition of the inhibitor or agonist, cells were gently mixed and incubated at 37° C. with gentle rotation. […]
For routine protein analysis, samples were analysed by 1D SDS-PAGE and immunoblotted. […] Blotting efficacy was assessed by Ponceau S staining. […]

Compound	competition of 3D9 staining of NETs (3D9 binding to NETs)	effect on NET formation (NET formation)	effect on H3 cleavage upon PMA stimulation [1]
branched immunising peptide: branched peptide formed by REIRR (SEQ ID NO 11) and REIRRKC-NH2 (SEQ ID NO 12) (also: branched: C-terminus of chain 1 amide-linked to Lys6 side chain of chain 2, chain 2 conjugated to KLH via Cys thiol, lactam at chain B 6 to a chain's C-terminus; listed as Homo sapiens)	could block 3D9 binding to NETs	–	–
NCCc1ccc(S(=O)(=O)F)cc1 [AEBSF, 4-[2-aminoethyl] benzensulfonylfluoride]	–	inhibited NET formation and nuclear decondensation	inhibited H3 cleavage
